Reference: paper PMC13186263 (The Journal of organic chemistry, 2020)
pKi: −log10 of the molar value.

Key:
PKCε = molecular target: T1, PKCε (Homo sapiens, UniProt Q02156); assay: PKC binding assay, competition with 3H-PDBu
T1 sequence (Q02156 1-737): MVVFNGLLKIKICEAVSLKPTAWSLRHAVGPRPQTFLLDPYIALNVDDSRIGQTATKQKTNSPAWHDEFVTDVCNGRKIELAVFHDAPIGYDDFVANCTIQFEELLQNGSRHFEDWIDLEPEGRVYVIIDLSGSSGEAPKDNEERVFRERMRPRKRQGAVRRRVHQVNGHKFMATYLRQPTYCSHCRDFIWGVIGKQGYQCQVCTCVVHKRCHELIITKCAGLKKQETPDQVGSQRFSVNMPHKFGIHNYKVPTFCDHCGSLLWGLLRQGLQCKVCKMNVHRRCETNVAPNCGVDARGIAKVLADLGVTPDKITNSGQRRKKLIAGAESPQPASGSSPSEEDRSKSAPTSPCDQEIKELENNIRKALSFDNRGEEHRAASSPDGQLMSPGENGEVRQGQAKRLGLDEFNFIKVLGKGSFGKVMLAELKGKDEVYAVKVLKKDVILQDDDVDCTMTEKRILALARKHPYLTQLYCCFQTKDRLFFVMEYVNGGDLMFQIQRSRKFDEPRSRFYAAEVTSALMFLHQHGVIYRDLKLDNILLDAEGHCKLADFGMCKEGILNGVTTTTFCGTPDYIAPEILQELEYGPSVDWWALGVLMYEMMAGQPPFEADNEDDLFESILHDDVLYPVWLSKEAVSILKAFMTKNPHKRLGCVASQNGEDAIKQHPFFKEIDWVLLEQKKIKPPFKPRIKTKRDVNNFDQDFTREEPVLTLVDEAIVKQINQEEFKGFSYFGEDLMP

PKCθ = PKCθ (Homo sapiens, UniProt Q04759); assay: PKC binding assay, competition with 3H-PDBu
PKC isoforms = assay: Cell-free competitive PKC binding, statements across isoforms; design: species or system human; details: five PKC isoforms
PKCα = PKCα (Homo sapiens, UniProt P17252); assay: biochemical; format: binding
PKCδ = PKCδ (Homo sapiens, UniProt Q05655); assay: PKC binding assay, competition with 3H-PDBu
PKCβI = PKCβI (Homo sapiens, UniProt P05771); assay: PKC binding assay, competition with 3H-PDBu
PKCβI, sequence (P05771 whole entry): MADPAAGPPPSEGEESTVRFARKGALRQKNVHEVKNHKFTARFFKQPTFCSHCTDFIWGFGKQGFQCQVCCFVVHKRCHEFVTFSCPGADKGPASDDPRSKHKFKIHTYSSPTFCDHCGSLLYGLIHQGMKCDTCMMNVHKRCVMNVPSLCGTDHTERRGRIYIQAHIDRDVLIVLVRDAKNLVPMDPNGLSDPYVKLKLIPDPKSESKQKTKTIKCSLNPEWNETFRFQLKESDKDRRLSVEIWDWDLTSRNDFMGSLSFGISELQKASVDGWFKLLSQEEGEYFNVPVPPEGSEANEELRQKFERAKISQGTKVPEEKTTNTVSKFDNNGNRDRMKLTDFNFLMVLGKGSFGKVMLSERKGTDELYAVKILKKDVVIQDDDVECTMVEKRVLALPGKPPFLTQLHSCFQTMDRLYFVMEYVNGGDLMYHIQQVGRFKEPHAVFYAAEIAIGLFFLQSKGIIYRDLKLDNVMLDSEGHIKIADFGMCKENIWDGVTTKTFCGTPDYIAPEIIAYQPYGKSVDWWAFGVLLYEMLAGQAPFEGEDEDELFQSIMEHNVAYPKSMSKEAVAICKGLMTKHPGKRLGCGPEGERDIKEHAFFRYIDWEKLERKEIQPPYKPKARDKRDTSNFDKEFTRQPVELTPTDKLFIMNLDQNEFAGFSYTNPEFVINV

PKCθ, sequence (Q04759 whole entry, canonical isoform): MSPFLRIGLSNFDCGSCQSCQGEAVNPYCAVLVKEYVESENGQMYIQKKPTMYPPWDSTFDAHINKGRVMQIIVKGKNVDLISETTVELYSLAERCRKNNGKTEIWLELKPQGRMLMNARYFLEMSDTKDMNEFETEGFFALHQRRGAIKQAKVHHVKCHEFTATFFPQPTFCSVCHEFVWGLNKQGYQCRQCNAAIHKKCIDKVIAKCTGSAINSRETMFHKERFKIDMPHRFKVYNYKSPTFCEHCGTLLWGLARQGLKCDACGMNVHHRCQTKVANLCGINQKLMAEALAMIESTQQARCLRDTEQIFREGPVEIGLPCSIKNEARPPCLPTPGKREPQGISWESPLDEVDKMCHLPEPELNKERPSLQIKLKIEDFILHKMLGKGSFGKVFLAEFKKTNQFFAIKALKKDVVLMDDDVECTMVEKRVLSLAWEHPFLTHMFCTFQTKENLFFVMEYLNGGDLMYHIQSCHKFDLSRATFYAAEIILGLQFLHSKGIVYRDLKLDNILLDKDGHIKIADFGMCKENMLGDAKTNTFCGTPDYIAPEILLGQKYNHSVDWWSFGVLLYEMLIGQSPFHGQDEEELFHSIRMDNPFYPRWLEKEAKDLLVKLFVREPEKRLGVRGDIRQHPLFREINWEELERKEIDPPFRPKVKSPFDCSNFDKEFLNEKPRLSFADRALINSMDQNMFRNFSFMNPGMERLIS
PKCδ, sequence (Q05655 whole entry): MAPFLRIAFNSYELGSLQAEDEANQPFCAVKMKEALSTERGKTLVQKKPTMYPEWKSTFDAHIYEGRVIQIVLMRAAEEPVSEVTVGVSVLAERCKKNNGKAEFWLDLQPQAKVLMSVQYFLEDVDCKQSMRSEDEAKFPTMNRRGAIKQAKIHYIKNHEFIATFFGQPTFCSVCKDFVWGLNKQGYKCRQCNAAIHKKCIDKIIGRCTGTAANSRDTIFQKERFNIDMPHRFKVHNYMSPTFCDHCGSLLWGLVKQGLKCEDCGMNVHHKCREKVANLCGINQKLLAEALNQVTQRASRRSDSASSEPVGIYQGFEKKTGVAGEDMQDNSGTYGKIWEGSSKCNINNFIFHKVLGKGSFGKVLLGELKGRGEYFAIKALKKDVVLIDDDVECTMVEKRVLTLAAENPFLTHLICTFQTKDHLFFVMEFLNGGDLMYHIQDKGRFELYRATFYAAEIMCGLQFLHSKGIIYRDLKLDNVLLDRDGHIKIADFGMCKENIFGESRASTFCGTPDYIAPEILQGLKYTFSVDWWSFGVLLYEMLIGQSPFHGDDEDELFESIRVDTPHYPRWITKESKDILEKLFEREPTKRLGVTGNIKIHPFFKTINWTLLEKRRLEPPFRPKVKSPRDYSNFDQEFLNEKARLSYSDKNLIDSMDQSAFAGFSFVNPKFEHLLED

Compound | pKi (PKCε) | pKi (PKCθ) | PKC binding affinities (PKC isoforms) | pKi (PKCα) | pKi (PKCδ) | pKi (PKCβI)
CCC/C=C/C=C/C(=O)O[C@H]1/C(=C/C(=O)OC)C[C@H]2C[C@H]([C@@H](C)O)OC(=O)C[C@H](O)C[C@@H]3C[C@H](OC(C)=O)C(C)(C)[C@](O)(C[C@@H]4C/C(=C/C(=O)OC)C[C@H](/C=C/C(C)(C)[C@]1(O)O2)O4)O3 [bryostatin 1, Bryostatin 1, reference compound] | 8.52 | 8.82 |  |  |  | 
CCCCCCCC(=O)O[C@H]1/C(=C/C(=O)OC)C[C@H]2C[C@H]([C@@H](C)O)OC(=O)CCCC(=O)OCC(C)(C)[C@]1(O)O2 [7b, (1S,3R,13S,14S,E)-13-Hydroxy-3-((R)-1-hydroxyethyl)-15-(2-methoxy-2-oxoethylidene)-12,12-dimethyl-5,9-dioxo-4,10,17-trioxabicyclo[11.3.1]heptadecan-14-yl Octanoate] |  |  | strongly attenuated binding affinity relative to the des-methyl compound 7a |  |  | 
CCCCCCCC(=O)O[C@H]1/C(=C/C(=O)OC)C[C@H]2C[C@H](CO)OC(=O)CCCC(=O)OCC(C)(C)[C@]1(O)O2 [7a, (1S,3R,13S,14S,E)-13-Hydroxy-3-(hydroxymethyl)-15-(2-methoxy-2-oxoethylidene)-12,12-dimethyl-5,9-dioxo-4,10,17-trioxabicyclo[11.3.1]heptadecan-14-yl Octanoate] | 8.57 | 8.82 | comparable to bryostatin | 8.36 | 8.77 | 8.40
